Experimental findings from article PMC12347391, “Sulforaphane-Rich Broccoli Sprout Extract Promotes Hair Regrowth in an Androgenetic Alopecia Mouse Model via Enhanced Dihydrotestosterone Metabolism” (International Journal of Molecular Sciences, 2025) are described below.

The test system of data set [1] is testosterone-induced AGA mouse model. The data set can be described thus: In vivo hair regrowth efficacy. More on the design: species or system C57BL/6J mice. The following applies: finasteride 1 mg/kg oral; for hair regrowth (coverage of the telogen area) / telogen-to-anagen conversion (telogen area transitioning): day 6; for hair regrowth (coverage of the telogen area) / telogen-to-anagen conversion (telogen area transitioning) / anagen area / hair regrowth / increase in hair follicle length compared to the untreated group / increase in hair weight compared to the untreated group: minoxidil 1% topical; for telogen-to-anagen conversion (telogen area transitioning): once daily. As to the method:
On day 6, dorsal hair was removed from all mice. All mice were anesthetized using 3% isoflurane in 100% oxygen at a flow rate of 0.8 L/min, and the suppression of deep pedal reflexes was confirmed in the mice. Then, the desired dorsal region was shaved using electric clippers, followed by the application of rosin wax. After 2 min, the rosin wax was removed with the help of adhesive tape. The application of rosin wax was repeated one more time to completely remove the few remaining hairs.
Testosterone-treated mice were then randomly assigned to six groups (n = 6 per group). The first group served as the negative control and only received the vehicle.
Hair regrowth was visually monitored and photographed on days 0, 3, 6, 9, 12, and 15. Regrowth progression was quantitatively assessed using the software ImageJ (version 1.54p; National Institutes of Health, Bethesda, MD, USA) by measuring the areas corresponding to telogen-phase skin (pink), anagen transition zones (black), and fully covered hair regions. On day 15, the regrown dorsal hair was trimmed and weighed using an analytical balance to assess total hair mass. To evaluate hair follicle length, mice were first anesthetized using 3% isoflurane in 100% oxygen at a flow rate of 0.8 L/min to minimize movement and distress. The dorsal skin area was then cleaned with 70% ethanol to prevent contamination. Using sterile fine-tipped forceps, approximately 5–20 hairs were grasped close to the skin surface and swiftly plucked in the direction of hair growth to minimize follicular damage. Only hair shafts with intact follicular bulbs were selected for analysis. This procedure was repeated at three distinct dorsal sites per animal to obtain a representative sampling of hair regrowth. Finally, the lengths of selected hair follicles were measured microscopically.

Another data set has as its system DHT. The data set can be described thus: Plasma DHT level (ELISA). The format is in vivo, C57BL/6J mice. The following applies: AGA mice; minoxidil 1% topical, finasteride 1 mg/kg oral. The protocol:
Blood samples were collected in heparinized tubes and centrifuged at 13,000× g for 5 min at 4 °C to isolate plasma. The plasma was stored at −80 °C until analysis for testosterone and DHT concentrations.
Plasma samples collected after the final dose of once-daily treatments were used to quantify serum testosterone and DHT levels using commercial ELISA kits: the Mouse Testosterone ELISA Kit and Mouse DHT ELISA Kit (LifeSpan BioSciences, Inc., Seattle, WA, USA). All assays were conducted following the manufacturer’s protocols.
Background: ELISA stands for enzyme-linked immunosorbent assay.

Another data set deals with Akr1c21. The data set can be described thus: Western blot of liver tissue. The format is in vivo, C57BL/6J mice. The note with it: 15 days post-treatment, minoxidil 1% topical, finasteride 1 mg/kg oral. The protocol:
(§1) To assess protein expression levels in skin and liver tissues, samples were lysed using M-PER^TM Mammalian Protein Extraction Reagent (Thermo Fisher Scientific) supplemented with a 1× working concentration of Xpert Protease Inhibitor Cocktail Solution (GenDEPOT, Barker, TX, USA), which included 50 μM PMSF, 10 μM Pepstatin A, 20 μM Leupeptin, 100 μM Benzamidine, and 50 μM Bestatin. The lysates were incubated on ice for 30 min and centrifuged at 12,000× g for 10 min at 4 °C to remove debris. The supernatants were collected, and total protein concentrations were determined using the Pierce^TM BCA Protein Assay Kit (Thermo Fisher Scientific).
(§2) Equal amounts of protein (20–30 μg) were loaded onto 10% SDS–polyacrylamide gels and electrophoresed using a Bio-Rad Mini-PROTEAN Tetra System with the Tris–Glycine–SDS running buffer. A pre-stained molecular weight marker (Precision Plus Protein^TM Dual Color Standards, Bio-Rad) was used as a reference. Proteins were then transferred to PVDF membranes (Immobilon®-P, Millipore, Burlington, MA, USA) using the wet transfer method with the Tris–Glycine buffer containing 20% methanol at 0.2 A for 120 min at 4 °C.
(§3) Membranes were blocked with 5% skim milk in TBST buffer (20 mM Tris–HCl, 150 mM NaCl, 0.2% Tween 20, pH 7.4) for 1 h at room temperature and incubated overnight at 4 °C with one of the following primary antibodies diluted at 1:1000: anti-HSP90 (Santa Cruz Biotechnology, sc-13119, Dallas, TX, USA), anti-β-catenin (Cell Signaling Technology, #8480S, Danvers, MA, USA), anti-Lef-1 (Cell Signaling Technology, #2230S, Danvers, MA, USA), anti-Akr1c21 (Invitrogen, PA5-36572, Carlsbad, CA, USA), or anti-Dhrs9 (MyBioSource, MBS9125625, San Diego, CA, USA). Each antibody was applied to separate membranes to avoid cross-reactivity and ensure target specificity.
(§4) After primary antibody incubation, membranes were washed four times for 10 min each with TBST at 50 rpm on a shaker, followed by incubation with HRP-conjugated secondary antibodies (Thermo Fisher Scientific) diluted 1:3000 for 1 h at room temperature. The membranes were then washed three times for 5 min each with TBST under the same conditions. Protein bands were visualized using the enhanced chemiluminescence (ECL) reagent (Bio-Rad) and imaged using the iBright^TM CL1500 Imaging System (Thermo Fisher Scientific). Densitometric analysis was performed using the software ImageJ (NIH), and band intensities were normalized to HSP90 expression to ensure consistent protein quantification across all samples.
Background: A western blot detects proteins with antibodies after separation by electrophoresis.

For another data set, the system named is Dhrs9. The data set can be described thus: Western blot of liver tissue. The data set is classed as in vivo, C57BL/6J mice. The following applies: 15 days post-treatment, minoxidil 1% topical, finasteride 1 mg/kg oral. The protocol:
as §1, §2, §3, §4

The subject of another data set is Lef-1. The data set can be described thus: Western blot of dorsal skin. The format is in vivo, C57BL/6J mice. The note with it: 15 days post-treatment; minoxidil 1% topical, finasteride 1 mg/kg oral; neither significant. The protocol:
as §1, §2, §3, §4

The subject of another data set is β-catenin. The data set can be described thus: Western blot of dorsal skin. The format is in vivo, C57BL/6J mice. The following applies: 15 days post-treatment; minoxidil 1% topical, finasteride 1 mg/kg oral. The protocol:
as §1, §2, §3, §4

The test system of another data set is liver tissue. The data set can be described thus: Safety observation and liver H&E histology after 15-day treatment. The data set is classed as in vivo, C57BL/6J mice. The note with it: mice, oral BSE or finasteride.
For data set [2], the system named is HDP cells. The data set can be described thus: In vitro cell proliferation assay (WST-1). The data set is classed as cell-based, human. In general terms: Tetrazolium assays rely on reduction of a dye to a coloured formazan, in cell work by metabolically active cells.
The test system of data set [3] is HDP cells. The data set can be described thus: In vitro scratch wound recovery assay. The data set is classed as cell-based, human. The protocol: No. BA-045855; Sartorius AG, […], Germany). […] Sartorius AG), following the manufacturer's instructions. Detached cells were removed by washing twice with PBS (pH 7.4). […] All treatments were performed in triplicate, including a vehicle control. […] Wound closure was quantified using the Incucyte® Scratch Wound Analysis Software Module, which calculates relative wound density (%) by comparing cell density within the wound area to that of the surrounding monolayer, providing an objective measure of cell migration and proliferation over time.

The next data set relates to HaCaT keratinocytes. The data set can be described thus: In vitro cell proliferation assay (WST-1).
The subject of data set [4] is CCD-986sk dermal fibroblasts. The data set can be described thus: In vitro cell proliferation assay (WST-1).

The structures appear in SMILES notation. Some results are limits rather than exact numbers.

As for `CC(C)(C)NC(=O)[C@H]1CC[C@H]2[C@@H]3CC[C@H]4NC(=O)C=C[C@]4(C)[C@H]3CC[C@]12C` [finasteride], in [1], the “hair regrowth (coverage of the telogen area)” value is reported as 7.76% and the “telogen-to-anagen conversion (telogen area transitioning)” value is listed as 85.8%. Also, in data set [1] (day 9), the telogen area is 6.94%, the anagen area is 93.1% and the hair regrowth was 54.2%. Further, in data set [1] (day 15), the hair regrowth is 99.0%, the “increase in hair follicle length compared to the untreated group” value was determined as 3.00 fold and the “increase in hair weight compared to the untreated group” value amounted to 165%. The “reduction of plasma DHT compared to the untreated control” value in the data set with DHT is 2.38 fold. In addition, in the data set with Akr1c21, the “hepatic Akr1c21 protein expression” value is “markedly upregulated”. In the data set with Dhrs9, the “hepatic Dhrs9 protein expression” value is listed as “markedly upregulated”. In the data set with Lef-1, the “Lef-1 expression in dorsal skin” value is given as “no such trend”. In the data set with β-catenin, the “β-catenin expression in dorsal skin” value is on record as “significantly restored”. In the data set with liver tissue, the “physical abnormalities during treatment” value was “no physical abnormalities”.

As to `Nc1cc(N2CCCCC2)nc(N)[n+]1[O-]` [minoxidil], the “concentration above which proliferation markedly declined” value with HDP cells [2] is “above 10 µg/mL”. For the same compound, the scratch wound closure stood at 68.8% in the data set on HDP cells [3] (0.1 µg/mL, 16 h); 77.7% in the data set on HDP cells [3] (0.1 µg/mL, 20 h); 94.7% in the data set with HDP cells [3] (0.1 µg/mL, 24 h); 49.2% with HDP cells [3] (1 µg/mL, 16 h); 29.2% in the data set on HDP cells [3] (25 µg/mL, 16 h). For the same compound, the “hair regrowth (coverage of the telogen area)” value in data set [1] came to 0.7%. The “telogen-to-anagen conversion (telogen area transitioning)” value in [1] amounted to 65.0%. Also, the anagen area in data set [1] (day 9) is recorded as 69.8%. Also, the hair regrowth came to 4.79% in data set [1] (day 9) and 95.0% in data set [1] (day 15). Besides, in data set [1] (day 15), the “increase in hair follicle length compared to the untreated group” value came out at 2.24 fold. Also, the “increase in hair weight compared to the untreated group” value in data set [1] (day 15) stood at 82.5%. Further, in the data set on DHT, the “reduction of plasma DHT compared to the untreated control” value is on record as “no detectable effect”. For the same compound, the “hepatic Akr1c21 protein expression” value in the data set on Akr1c21 is recorded as “no significant effect”. In addition, the “hepatic Dhrs9 protein expression” value in the data set with Dhrs9 is on record as “no significant effect”. Also, the “Lef-1 expression in dorsal skin” value with Lef-1 is on record as “positive trend”. Further, the “β-catenin expression in dorsal skin” value with β-catenin is “significantly restored”. Further, the “concentration above which cytotoxic effects (decreased cell viability) were seen” value with HaCaT keratinocytes is “above 10 µg/mL”. The “concentration at which proliferation decreased (dose-dependent cytotoxicity)” value in data set [4] was at least 10 µg/mL. The “increase in cell proliferation” value is given as 184% in data set [4] (0.5 µg/mL) and 173% in [4] (1 µg/mL). Also, the “proliferation at lower concentrations” value in data set [4] (0.01–0.1 µg/mL) is recorded as “significantly enhanced proliferation”.
